Measurements reported in publication PMC6433934, “Preclinical Evaluation of Bispecific Adaptor Molecule Controlled Folate Receptor CAR-T Cell Therapy With Special Focus on Pediatric Malignancies” (Frontiers in Oncology, 2019).

Legend:
[1] = EC17 dose finding safety study, tumor-free mice; type: in vivo; design: key to CRS grade: 0: normal (no CRS); 1: mild; 2: light-to-moderate; 3–4: severe CRS; 5: death (due to severe CRS); details: ~10 million E2-CAR-T cells
Source text: For MDA-MB-231 studies, mice received a high dose (~10 million) of a “clinical facsimile” of E2-CAR-T cells (~39% EGFRt+) with a low differentiation profile. Two days later, we started them with 3 different treatment regimens of EC17 at an average tumor size of ~293 ± 39 mm^3. The EC17 dosing was given once-a-week (SIW) at 500 nmol/kg on Mondays, or as escalating doses of 5, 50, or 100, and 500 or 1,000 nmol/kg on Monday, Thursday, and Monday with a 6 day break in-between cycles. Control mice were left untreated (received CAR-T cells but no EC17). For comparison, a cohort of tumor-free littermates also received the same number of CAR-T cells without or with EC17 SIW at 500 nmol/kg. To study the effect of high dietary folate, two sets of NSG mice were placed on either a FA-replete diet (4 mg/kg, Envigo, Indianapolis, IN) or a FA-deficient diet (TestDiet, St. Louis, MO) upon arrival. […]
Depending on the CAR-T cell dose and how EC17 is administered, tumor-bearing mice receiving FITC-specific CAR-T cells can experience severe CRS and varying degrees of body weight loss ([27], [33], [34]). […] On the days immediately following each EC17 dose, animals were scored and rescue agents such as sodium fluorescein, folic acid and leucovorin were used to mitigate CRS toxicity ([33]). […]

FRα = molecular target: T1, FRα (Homo sapiens, UniProt P15328); experiment: 3H-EC17 cell-based radioligand binding, KB cells; details: ^3H-EC17, KB cells, 2 h at 37°C, from molecules bound per cell
T1 construct: KB (FRα-expressing human cervical carcinoma with HeLa markers); endogenous in cells; host or cells: KB cells (human cervical carcinoma with HeLa markers)
Experimental: Unless otherwise noted, all FR+ and FR-negative cancer cell lines were, respectively, maintained in RPMI-1640 medium (Gibco BRL) supplemented with 10% heat-inactivated fetal calf serum without (FFRPMI) or with (RPMI) 2.4 μM folic acid (FA). KB (FRα-expressing human cervical carcinoma with HeLa markers) and CHO-β (Chinese hamster ovary cells transfected with human FRβ) were used as the sources of FRα and FRβ for radioligand binding assays, respectively ([18]). MDA-MB-231 represents a FRα+ subclone of human TNBC cell line. For AML studies, the green fluorescent protein (GFP)-expressing isogenic pairs of FRβ-positive (THP1-FRβ) and FR-negative (THP1-FG12) cell lines were kindly provided by Dr. Manohar Ratnam (The University of Toledo, Toledo, OH). […]
The bispecific affinities of EC17 CAM were assessed using ^3H-EC17 in cell-based radioligand binding assays. […] The whole cell lysates were quantitated for the level of radioactivity and cellular protein content by standard Pierce BCA protein assay. The number of ^3H-EC17 molecules bound per cell was calculated to determine the dissociation constants (Kd) for FRα (KB) and FRβ (CHO-β), respectively. […] Afterwards, the cells were washed 4x with PBS, lysed with 0.1% Triton X-100 plus 0.1 N NaOH and counted in a scintillation counter. […]

T1 sequence (P15328 25-257): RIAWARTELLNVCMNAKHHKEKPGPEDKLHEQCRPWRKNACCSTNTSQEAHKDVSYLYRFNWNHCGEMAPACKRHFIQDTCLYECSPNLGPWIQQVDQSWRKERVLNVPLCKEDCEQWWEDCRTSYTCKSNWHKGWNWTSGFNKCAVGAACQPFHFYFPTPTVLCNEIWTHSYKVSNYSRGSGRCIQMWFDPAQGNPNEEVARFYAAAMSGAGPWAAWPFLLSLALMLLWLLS

In the case of `Nc1nc2ncc(CNc3ccc(C(=O)NC(CCC(=O)NCCNC(=S)Nc4ccc(-c5c6ccc(=O)cc-6oc6cc(O)ccc56)c(C(=O)O)c4)C(=O)O)cc3)nc2c(=O)[nH]1` (stereo not drawn) [EC17, FA-(γ)-ethylenediamine-FITC], the CRS grade ([1]; 2 weekly doses EC17 500 nmol/kg, 0–5 scale) is reported as 0, the “CAR-T cell expansion by flow cytometry” value ([1]; EC17 SIW 500 nmol/kg) is reported as “no CAR-T cell expansion was detected” and the Kd (FRα) is reported as 1.7 nM.
